The test system of assay [1] is HepG2. Kind of assay: Antiproliferative activity against human HepG2 cells at 25 uM after 48 hrs by MTT assay. It is filed as functional. (In general: Tetrazolium dyes change colour on reduction, which living cells bring about.)
Assay [2] has as its system HepG2. Kind of assay: Antiproliferative activity against human HepG2 cells at 6.25 to 50 uM after 48 hrs by MTT assay. It is filed as functional, cell-based.
Assay [3] concerns HepG2. Kind of assay: Antiproliferative activity against human HepG2 cells at 6.25 to 50 uM after 24 hrs by MTT assay. It is filed as functional, cell-based.
For assay [4], the system named is HepG2. Description: Antiproliferative activity against human HepG2 cells at 25 uM after 24 hrs by MTT assay. It is filed as functional.
In assay [5] the test system is HepG2. Description: Antiproliferative activity against human HepG2 cells at 6.25 uM after 24 hrs by MTT assay. It counts as functional.
Assay [6] deals with HepG2. Kind of assay: Antiproliferative activity against human HepG2 cells at 12.5 uM after 48 hrs by MTT assay. It is filed as functional.
The test system of assay [7] is HepG2. Description: Antiproliferative activity against human HepG2 cells at 6.25 uM after 48 hrs by MTT assay. It counts as functional.

Activity calls are given as the source filed them. The rule behind the calls is not given here.

In the assay with HepG2 [1], `C[C@@H]1O[C@@H](O[C@@H]2[C@@H](O)[C@H](O)[C@@H](CO)O[C@H]2c2c(O)cc3oc(-c4ccc(O)c(O)c4)cc(=O)c3c2O)[C@H](O)[C@H](O)[C@H]1O` showed an Activity of 74.9%.
Take `C[C@@H]1O[C@@H](O[C@@H]2[C@@H](O)[C@@H](O)CO[C@H]2c2c(O)cc3oc(-c4ccc(O)c(O)c4)cc(=O)c3c2O)[C@H](O)[C@H](O)[C@H]1O`: the outcome in the assay on HepG2 [2] was Active.
With `O=C1C[C@@H](c2ccc(O)cc2)Oc2c1c(O)cc(O[C@@H]1O[C@H](CO)[C@@H](O)[C@H](O)[C@H]1O)c2[C@@H]1OC[C@H](O)[C@H](O)[C@H]1O`, the outcome in the assay with HepG2 [3] was inactive.
With `O=c1cc(-c2ccc(O)c(O)c2)oc2cc(O)c([C@@H]3O[C@H](CO)[C@@H](O)[C@H](O)[C@H]3O)c(O)c12` [ISOORIENTIN], the Activity turned out to be 26.1% in the assay on HepG2 [4], 19.6% with HepG2 [5], 92% in the assay on HepG2 [6] and 84% in the assay on HepG2 [7].

Values taken from ChEMBL document CHEMBL1649353, “Spectroscopic characterization and antiproliferative activity on HepG2 human hepatoblastoma cells of flavonoid C-glycosides from Petrorhagia velutina” (2010).
